US9024071B2, “Therapeutic compounds” (University of Florida Research Foundation, Inc., priority 2009, dated 2015)
“Also recorded” adds a separate entry of the source.

Key:
[1] = tested on: cocaine self-administration; settings: rat; cited from earlier work
5HT2C [2] = biological target: T1, 5HT2C (Homo sapiens, UniProt P28335); settings: cited from earlier work
T1 sequence (P28335 33-458): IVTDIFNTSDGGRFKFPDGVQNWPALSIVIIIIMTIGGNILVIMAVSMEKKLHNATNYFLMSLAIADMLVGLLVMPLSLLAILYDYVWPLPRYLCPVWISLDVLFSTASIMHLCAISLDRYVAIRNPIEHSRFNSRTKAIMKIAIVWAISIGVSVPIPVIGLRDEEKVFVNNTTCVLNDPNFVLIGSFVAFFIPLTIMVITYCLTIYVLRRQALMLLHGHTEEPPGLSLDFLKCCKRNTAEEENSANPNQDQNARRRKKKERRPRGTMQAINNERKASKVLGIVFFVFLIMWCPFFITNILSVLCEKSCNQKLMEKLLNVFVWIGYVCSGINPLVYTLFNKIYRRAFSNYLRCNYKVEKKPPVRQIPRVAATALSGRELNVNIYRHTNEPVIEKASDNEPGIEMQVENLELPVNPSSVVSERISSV

5HT2B [3] = biological target: T2, 5HT2B (Homo sapiens, UniProt P41595); test: Radioreceptor competition/saturation binding, 5HT2B ([3H]-mesulergine); settings: competitive binding; for nH: Hill slope; for Ki: wild type receptor transiently expressed (FIG. 1: HEK 293 cells)
T2 sequence (P41595 whole entry): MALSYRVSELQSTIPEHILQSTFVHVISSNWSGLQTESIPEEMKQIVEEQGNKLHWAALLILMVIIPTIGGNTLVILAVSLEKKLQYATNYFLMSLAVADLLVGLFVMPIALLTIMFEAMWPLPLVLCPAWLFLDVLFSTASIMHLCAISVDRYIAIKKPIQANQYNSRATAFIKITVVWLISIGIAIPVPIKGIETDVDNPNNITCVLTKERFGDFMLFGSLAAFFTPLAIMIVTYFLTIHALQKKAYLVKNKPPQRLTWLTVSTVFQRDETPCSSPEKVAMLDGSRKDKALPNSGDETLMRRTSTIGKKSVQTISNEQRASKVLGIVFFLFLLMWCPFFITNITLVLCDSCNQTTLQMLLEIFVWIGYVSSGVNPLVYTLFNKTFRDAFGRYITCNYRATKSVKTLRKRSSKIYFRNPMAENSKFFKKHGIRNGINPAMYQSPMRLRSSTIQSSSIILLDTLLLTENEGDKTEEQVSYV
Experimental: (§1) Cells are grown at 37° C. in a humidified incubator with 5% CO2. The cDNAs encoding the human 5-HT2A, 5-HT2B, and 5-HT2C receptors (wild type) are purchased from UMR (Rolla, Mo.) for transient transfection of the clonal cells. For radioreceptor binding assays, 5-HT2A, 5-HT2B, and 5-HT2C receptor membranes are prepared from transfected CHO-K1 cells. For functional assays measuring activity of PLC/IP formation, transfected CHO-K1 cells are used for 5-HT2A and 5-HT2C receptors. […] Twenty-four hours before transfection, cells are seeded at 40% confluence in 100 mm dishes for radioreceptor binding assays or at 10^5 cells per well in 12-well plates for functional assays. CHO-K1 cells are transiently transfected with 12 μg of plasmid and 32 μl of lipofectamine (Invitrogen) per 100 mm dish for radioreceptor binding assays, or, 0.8 μg plasmid and 4.0 μl of lipofectamine per well for functional assays. For 5-HT2B functional assays using HEK cells, 24 μg plasmid DNA is mixed with 60 μl of Lipofectamine 2000 (Invitrogen) to transfect 1-2×10^6 cells in a 10-cm plate. Cells are allowed to express transfected receptors for another 24 hrs (Herrick, 1997).
(§2) Radioreceptor saturation and competition binding assays are performed using membrane homogenates, similar to our methods reported previously for the phylogenetically closely related histamine H1 GPCR (Booth, 2002; Moniri et al., 2004). […] Briefly, forty-eight hours following CHO cell transfection, cells are harvested and homogenized in 50 mM Tris-HCl containing 0.1% ascorbic acid and 4.0 mM CaCl2 at pH 7.4 (assay buffer). The homogenate is centrifuged at 35,000 g for 25 min and the resulting membrane pellet is re-suspended in assay buffer. Protein concentration is determined by the method of Lowry et al. (Lowry, 1951). […] Incubation of radioreceptor binding assay mixtures is for 1.0 h at 37° C., with termination by rapid filtration through Whatman GF/B filters using a 96-well cell harvester (Tomtec, Hamden, Conn.). The membrane-bound [^3H]-radioligand retained on the filter discs is quantified by liquid scintillation spectrometry. Data are analyzed by nonlinear regression using the sigmoidal curve-fitting algorithms in Prism 4.03 (GraphPad Software Inc., San Diego, Calif.). Ligand affinity is expressed as an approximation of Ki values by conversion of the IC50 data to K0.5 values using the equation K0.5=IC50/1+L/KD, where L is the concentration of radioligand having affinity KD (Cheng, 1973).

5HT2A [4] = biological target: T3, 5HT2A (Homo sapiens, UniProt P28223); test: Radioreceptor competition/saturation binding, 5HT2A ([3H]-ketanserin); settings: competitive binding; for nH: Hill slope; for Ki: wild type receptor transiently expressed (FIG. 1: HEK 293 cells)
T3 sequence (P28223 whole entry): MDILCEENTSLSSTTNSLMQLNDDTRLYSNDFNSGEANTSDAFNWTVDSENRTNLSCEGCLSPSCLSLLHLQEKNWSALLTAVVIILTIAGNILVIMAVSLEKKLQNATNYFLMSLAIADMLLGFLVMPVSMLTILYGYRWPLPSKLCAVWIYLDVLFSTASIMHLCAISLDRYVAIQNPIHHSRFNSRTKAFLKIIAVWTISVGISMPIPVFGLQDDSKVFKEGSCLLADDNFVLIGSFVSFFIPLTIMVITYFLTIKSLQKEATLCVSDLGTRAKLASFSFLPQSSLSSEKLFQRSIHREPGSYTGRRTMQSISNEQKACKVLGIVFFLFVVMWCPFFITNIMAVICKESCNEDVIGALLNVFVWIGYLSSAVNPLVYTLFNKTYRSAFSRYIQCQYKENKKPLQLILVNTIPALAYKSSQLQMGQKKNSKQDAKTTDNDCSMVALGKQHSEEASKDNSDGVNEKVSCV
Experimental: as §1, §2

RSK 3 = RSK 3 (Homo sapiens, UniProt Q15349); test: Kinase affinity panel (labeled tag binding), RSK 3; settings: at 1.0 uM CAT
RSK 3, sequence (Q15349 whole entry): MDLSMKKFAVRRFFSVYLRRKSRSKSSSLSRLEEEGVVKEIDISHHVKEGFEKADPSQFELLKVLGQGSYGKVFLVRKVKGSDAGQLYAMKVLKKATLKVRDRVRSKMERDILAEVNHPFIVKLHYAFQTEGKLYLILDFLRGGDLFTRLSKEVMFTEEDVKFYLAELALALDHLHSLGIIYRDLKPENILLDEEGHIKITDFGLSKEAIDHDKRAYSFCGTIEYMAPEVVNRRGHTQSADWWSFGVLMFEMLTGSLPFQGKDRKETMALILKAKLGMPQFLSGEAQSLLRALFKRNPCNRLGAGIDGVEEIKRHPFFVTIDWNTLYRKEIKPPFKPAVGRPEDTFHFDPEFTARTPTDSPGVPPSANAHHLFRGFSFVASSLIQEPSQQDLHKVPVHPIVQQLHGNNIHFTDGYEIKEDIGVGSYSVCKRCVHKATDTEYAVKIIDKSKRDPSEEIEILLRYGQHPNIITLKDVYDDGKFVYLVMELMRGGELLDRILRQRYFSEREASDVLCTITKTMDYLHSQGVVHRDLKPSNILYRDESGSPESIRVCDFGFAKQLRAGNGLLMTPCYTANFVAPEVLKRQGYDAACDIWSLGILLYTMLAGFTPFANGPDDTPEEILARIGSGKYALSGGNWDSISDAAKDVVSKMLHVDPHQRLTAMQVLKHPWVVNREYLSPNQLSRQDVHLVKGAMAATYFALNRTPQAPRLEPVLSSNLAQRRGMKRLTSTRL

RSK 1 = RSK 1 (Homo sapiens, UniProt Q15418); test: Kinase affinity panel (labeled tag binding), RSK 1; settings: at 1.0 uM CAT
RSK 1, sequence (Q15418 whole entry): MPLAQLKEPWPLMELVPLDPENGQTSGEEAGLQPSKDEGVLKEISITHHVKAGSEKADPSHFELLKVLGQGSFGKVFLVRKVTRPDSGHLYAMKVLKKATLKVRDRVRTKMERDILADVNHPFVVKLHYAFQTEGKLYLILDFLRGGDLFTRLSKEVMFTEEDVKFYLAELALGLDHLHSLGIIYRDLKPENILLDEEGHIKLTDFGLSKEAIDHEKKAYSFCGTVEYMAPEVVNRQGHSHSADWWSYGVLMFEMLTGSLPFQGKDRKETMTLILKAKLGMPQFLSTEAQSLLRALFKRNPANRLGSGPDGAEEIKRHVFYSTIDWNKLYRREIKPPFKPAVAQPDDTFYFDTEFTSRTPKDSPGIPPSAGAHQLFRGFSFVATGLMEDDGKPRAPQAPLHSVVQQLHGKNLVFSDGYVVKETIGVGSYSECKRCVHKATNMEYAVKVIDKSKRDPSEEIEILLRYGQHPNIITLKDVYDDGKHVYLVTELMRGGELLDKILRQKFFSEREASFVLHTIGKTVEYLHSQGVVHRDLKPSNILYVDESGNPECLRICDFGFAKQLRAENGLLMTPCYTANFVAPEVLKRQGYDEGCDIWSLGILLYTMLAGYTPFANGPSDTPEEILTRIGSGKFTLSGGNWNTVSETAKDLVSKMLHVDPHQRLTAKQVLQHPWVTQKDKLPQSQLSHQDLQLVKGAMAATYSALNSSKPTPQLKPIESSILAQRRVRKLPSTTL

5HT2C [5] = biological target: T1, 5HT2C; test: PLC activity/[3H]-IP formation, 5HT2C; format: cell-based
Experimental: (§3) Cells are grown at 37° C. in a humidified incubator with 5% CO2. The cDNAs encoding the human 5-HT2A, 5-HT2B, and 5-HT2C receptors (wild type) are purchased from UMR (Rolla, Mo.) for transient transfection of the clonal cells. For radioreceptor binding assays, 5-HT2A, 5-HT2B, and 5-HT2C receptor membranes are prepared from transfected CHO-K1 cells. For functional assays measuring activity of PLC/IP formation, transfected CHO-K1 cells are used for 5-HT2A and 5-HT2C receptors. For 5HT2B receptors, however, more robust and consistent results for the PLC/IP assay are obtained using transfected HEK cells (Setola et al., 2005). Twenty-four hours before transfection, cells are seeded at 40% confluence in 100 mm dishes for radioreceptor binding assays or at 10^5 cells per well in 12-well plates for functional assays. CHO-K1 cells are transiently transfected with 12 μg of plasmid and 32 μl of lipofectamine (Invitrogen) per 100 mm dish for radioreceptor binding assays, or, 0.8 μg plasmid and 4.0 μl of lipofectamine per well for functional assays. For 5-HT2B functional assays using HEK cells, 24 μg plasmid DNA is mixed with 60 μl of Lipofectamine 2000 (Invitrogen) to transfect 1-2×10^6 cells in a 10-cm plate. Cells are allowed to express transfected receptors for another 24 hrs (Herrick, 1997).
(§4) Functional activation of PLC is measured as [^3H]-IP formation in CHO cells transiently expressing serotonin 5-HT2C receptors or HEK cells transiently expressing serotonin 5-HT2A or 5-HT2B receptors, as previously reported (Moniri et al., 2004). Briefly, thirty-two hours following transfection, cells in inositol-free Dulbecco's modified Eagle's medium (DMEM) are incubated for twelve hours with 1.0 μCi/ml myo-[2-^3H]-inositol, the radiolabeled precursor of the PLC-β substrate phosphatidylinositol. […]
(§5) Functional activation of PLC is measured as [^3H]-IP formation in CHO cells transiently expressing 5-HT2A or 5-HT2C receptors and HEK cells transiently expressing 5HT2B receptors, as previously reported by our lab (Booth, 2002; Moniri et al., 2004). […]

Histamine H1 WT = biological target: T4, Histamine H1 WT (Homo sapiens, UniProt P35367); test: Competitive binding, histamine H1 receptor; settings: Hill slope
T4 construct: expressed in transfected cells
T4 sequence (P35367 whole entry): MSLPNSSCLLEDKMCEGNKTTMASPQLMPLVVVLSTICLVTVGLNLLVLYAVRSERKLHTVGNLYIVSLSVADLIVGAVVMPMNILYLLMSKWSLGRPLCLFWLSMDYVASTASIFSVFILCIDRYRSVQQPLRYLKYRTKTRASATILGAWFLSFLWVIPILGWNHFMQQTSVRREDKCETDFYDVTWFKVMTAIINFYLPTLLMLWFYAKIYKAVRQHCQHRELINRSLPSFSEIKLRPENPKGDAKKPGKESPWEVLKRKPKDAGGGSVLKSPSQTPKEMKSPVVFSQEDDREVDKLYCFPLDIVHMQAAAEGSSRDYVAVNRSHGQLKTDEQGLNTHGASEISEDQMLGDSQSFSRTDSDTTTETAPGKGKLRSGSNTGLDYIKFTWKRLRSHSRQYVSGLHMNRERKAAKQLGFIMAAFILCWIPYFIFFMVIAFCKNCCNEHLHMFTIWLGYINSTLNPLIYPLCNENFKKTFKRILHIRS
Experimental: as §2

Histamine H1 receptor = Histamine H1 receptor (Homo sapiens, UniProt P35367); test: Histamine H1 receptor-mediated stimulation of PLC activity/[3H]-IP formation; format: cell-based; settings: against histamine activation
Histamine H1 receptor, sequence (P35367 whole entry): as above

5HT2A [6] = biological target: T3, 5HT2A; test: PLC activity/[3H]-IP formation, 5HT2A; format: cell-based
Experimental: as §3, §4, §5

438 other kinases = test: Kinase affinity panel (labeled tag binding), other kinases; settings: at concentrations up to 1.0 uM
RSK 2 = RSK 2 (Homo sapiens, UniProt P51812); test: Kinase affinity panel (labeled tag binding), RSK 2; settings: at concentrations up to 1.0 uM
RSK 2, sequence (P51812 whole entry): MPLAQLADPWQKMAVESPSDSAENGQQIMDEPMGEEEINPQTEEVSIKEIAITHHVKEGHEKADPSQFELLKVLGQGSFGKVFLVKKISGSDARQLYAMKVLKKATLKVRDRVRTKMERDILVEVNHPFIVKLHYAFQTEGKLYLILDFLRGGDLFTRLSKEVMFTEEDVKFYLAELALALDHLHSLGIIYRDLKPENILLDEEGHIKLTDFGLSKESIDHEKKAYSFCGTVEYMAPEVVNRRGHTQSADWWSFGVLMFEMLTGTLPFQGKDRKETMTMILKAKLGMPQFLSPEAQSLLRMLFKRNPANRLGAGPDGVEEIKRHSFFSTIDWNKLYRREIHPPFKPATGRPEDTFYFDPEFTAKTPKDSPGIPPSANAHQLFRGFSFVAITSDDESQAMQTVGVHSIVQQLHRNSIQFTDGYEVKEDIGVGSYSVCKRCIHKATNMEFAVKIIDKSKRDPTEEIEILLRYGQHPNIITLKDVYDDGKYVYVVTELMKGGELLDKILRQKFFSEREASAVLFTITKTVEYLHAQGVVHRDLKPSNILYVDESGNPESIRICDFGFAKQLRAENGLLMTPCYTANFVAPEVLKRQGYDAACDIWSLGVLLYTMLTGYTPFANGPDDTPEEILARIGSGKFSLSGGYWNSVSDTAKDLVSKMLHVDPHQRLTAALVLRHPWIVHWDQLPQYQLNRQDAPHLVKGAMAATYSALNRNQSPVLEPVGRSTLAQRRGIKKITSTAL

RSK 4 = RSK 4 (Homo sapiens, UniProt Q9UK32); test: Kinase affinity panel (labeled tag binding), RSK 4; settings: at 1.0 uM CAT
RSK 4, sequence (Q9UK32 whole entry): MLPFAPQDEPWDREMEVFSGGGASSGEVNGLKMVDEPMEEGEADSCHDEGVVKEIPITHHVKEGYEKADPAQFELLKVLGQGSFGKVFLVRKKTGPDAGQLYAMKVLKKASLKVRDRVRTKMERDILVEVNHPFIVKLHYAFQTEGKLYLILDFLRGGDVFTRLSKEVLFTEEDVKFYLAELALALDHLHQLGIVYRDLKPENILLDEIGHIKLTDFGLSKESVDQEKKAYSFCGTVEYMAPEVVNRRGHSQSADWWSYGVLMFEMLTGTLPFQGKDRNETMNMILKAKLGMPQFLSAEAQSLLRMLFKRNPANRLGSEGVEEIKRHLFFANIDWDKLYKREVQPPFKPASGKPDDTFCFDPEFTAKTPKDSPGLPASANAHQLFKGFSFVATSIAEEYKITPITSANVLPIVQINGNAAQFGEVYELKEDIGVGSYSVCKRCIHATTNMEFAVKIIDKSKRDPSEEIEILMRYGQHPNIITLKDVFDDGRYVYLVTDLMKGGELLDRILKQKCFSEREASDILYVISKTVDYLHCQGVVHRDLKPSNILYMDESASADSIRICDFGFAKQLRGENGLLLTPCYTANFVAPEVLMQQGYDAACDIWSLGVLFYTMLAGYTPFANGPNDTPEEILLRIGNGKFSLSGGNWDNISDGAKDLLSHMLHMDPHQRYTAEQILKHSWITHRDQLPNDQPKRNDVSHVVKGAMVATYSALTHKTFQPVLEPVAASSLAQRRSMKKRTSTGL

5HT2B [7] = biological target: T2, 5HT2B; test: PLC activity/[3H]-IP formation, 5HT2B; format: cell-based
Experimental: as §1

5HT2C [8] = biological target: T1, 5HT2C; test: Radioreceptor competition/saturation binding, 5HT2C ([3H]-mesulergine); settings: competitive binding; for nH: Hill slope; for Ki: wild type receptor transiently expressed (FIG. 1: HEK 293 cells)
Experimental: as §1, §2

[9] = inhibition of basal (constitutive) [3H]-IP formation

Structure (SMILES)	rate of cocaine self-administration [1]	nH (5HT2B [3])	Ki (5HT2B [3]) [nM]	nH (5HT2A [4])	Ki (5HT2A [4]) [nM]	nH (Histamine H1 WT)	nH (5HT2C [8])	Ki (5HT2C [8]) [nM]	further results
COc1cccc([C@H](O)C2CCN(CCc3ccc(F)cc3)CC2)c1OC [M100907]	does not alter responding rate								
C[C@H]1CNCCc2ccc(Cl)cc21 [lorcaserin, Lorcaserin]									selectivity for activation of 5HT2C receptors over 5HT2A receptors (5HT2C [2]): 15 fold
CN(C)[C@@H]1Cc2ccccc2[C@@H](C2CCCCC2)C1 [(−)-trans-CAT, (−)-(2S,4R)-4-cyclohexyl-N,N-dimethyl-1,2,3,4-tetrahydronaphthalen-2-amine]		0.81 ± 0.02	23.7 ± 0.79	1.26 ± 0.01	1.61 ± 0.05	1.01 ± 0.05	1.13 ± 0.18	13.7 ± 2.17	inhibition of labeled tag binding (RSK 3): 80%; inhibition of tag binding (RSK 1): 20%; Kind of functional activity, PLC activity/IP formation (5HT2C [5]): inverse agonist; PLC/IP formation IMAX (5HT2C [5]): 60.65 ± 2.94 % Basal; IC50 (5HT2C [5]; [9]): 190 ± 40 nM; PLC/IP formation, kind of activity at H1 (Histamine H1 receptor): competitively antagonized; also recorded: Competitive; Kind of functional activity, PLC activity/IP formation (5HT2A [6]): inverse agonist; PLC/IP formation IMAX (5HT2A [6]): 48.45 ± 5.50 % Basal; IC50 (5HT2A [6]; [9]): 130 ± 20 nM; binding to 438 other kinases (438 other kinases): did not exhibit as significant binding; binding to RSK 2 (RSK 2): did not exhibit similarly significant binding; inhibition of labeled tag binding (RSK 4): 80%; Kind of functional activity, PLC activity/IP formation (5HT2B [7]): inverse agonist; PLC/IP formation IMAX (5HT2B [7]): 56.80 ± 2.13 % Basal; IC50 (5HT2B [7]; [9]): 250 ± 30 nM
Cc1cc2c(cc1Cl)N(C(=O)Nc1ccc(Oc3cccnc3C)nc1)CC2 [SB242084]	increases the rate of cocaine self-administration dose-dependently								
CN(C)[C@H]1Cc2ccccc2[C@H](C2CCCCC2)C1 [(+)-trans-CAT, (+)-(2R,4S)-4-cyclohexyl-N,Ndimethyl-1,2,3,4-tetrahydronaphthalen-2-amine]		0.75 ± 0.12	1010 ± 140	0.77 ± 0.20	78.2 ± 4	1.02 ± 0.00	1.20 ± 0.26	28.9 ± 4.4	
